Source: US10227376B2, “Radiolabeled cationic steroid antimicrobials and diagnostic methods” (BRIGHAM YOUNG UNIVERSITY, priority 2014, dated 2019)

Assay: Stability of labeled compounds in human serum
Assay type: in vitro ADME
Conditions: 64Cu labeled compound, four hours, 37 degrees C., 500 rpm incubation
Procedure: Stability of the labeled CSA-150 and CSA-151 compounds of Example 1 was measured. The labeled compounds were placed in human serum for four hours at 37 degrees C. at 500 rpm incubation.

In the case of `CCCCCCCCN(CCCC(C)[C@H]1CC[C@H]2[C@@H]3[C@H](OCCCNC(C)=O)C[C@@H]4C[C@H](OCCCNC(C)=O)CC[C@]4(C)[C@H]3C[C@H](OCCCNC(C)=O)[C@]12C)C(=O)NCCOCCOCCOCCOCCNC(=O)CN1CCN(CC(=O)O)CCN(CC(=O)O)CC1` (stereo partly shown) (64Cu complex, metal not drawn) [CSA-151], the “Stability of the labeled compound (% stable)” value was 100%.
